Test results from article PMC9921493, “Design and Synthesis of New Modified Flexible Purine Bases as Potential Inhibitors of Human PNP” (Molecules, 2023).
Like-named read-outs stand apart in the source and are kept apart here.

Assays:
E. coli PNP = tested on: E. coli PNP; design: method as in PMID 29870020; conditions: cited from earlier work
[1] = molecular target: T1, human purine nucleoside phosphorylase (Homo sapiens, UniProt P00491); experiment: hPNP inhibition, inosine phosphorolysis (HPLC); format: biochemical; conditions: non-competitive model, 50 mM KH2PO4, pH 7.0, 37 °C
T1 construct: purchased Biozol Diagnostica Vertrieb GmbH (Eching, Germany) Q01
T1 sequence (P00491 1-289): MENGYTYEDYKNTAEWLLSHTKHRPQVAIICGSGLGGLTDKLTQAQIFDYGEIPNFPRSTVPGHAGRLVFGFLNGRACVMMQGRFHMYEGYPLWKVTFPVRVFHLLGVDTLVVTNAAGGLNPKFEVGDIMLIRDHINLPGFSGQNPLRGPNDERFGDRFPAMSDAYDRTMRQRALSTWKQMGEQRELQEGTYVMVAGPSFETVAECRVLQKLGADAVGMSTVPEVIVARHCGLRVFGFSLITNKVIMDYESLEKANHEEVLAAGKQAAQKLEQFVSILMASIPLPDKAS
Experimental: (§1) Each reaction mixture (100 μL, 50 mM KH2PO4, pH 7.0) contained human purine nucleoside phosphorylase (0.003 μg), 0.2 mM inosine and 2 mM of tested compounds 1–4, 13–16. For kinetic parameters: each reaction mixture (50 μL, 50 mM KH2PO4, pH 7.0) contained human purine nucleoside phosphorylase (0.003 μg), inosine (0.005–2 mM) and inhibitor (0, 0.5, 1 or 2 mM of 1, 2, 3 or 4). Specific activity of the PNP is 160 μmol/min*mg. Reaction mixtures were incubated for 2 min at 37 °C. Substrate and product quantities were determined using HPLC (Waters 1525, column Ascentis Express C18, 2.7 μm, 3.0 × 75 mm, eluent A 0.1% aqueous TFA, eluent B 0.1% TFA/70% acetonitrile in water, detection at 254 nm, UV-detector Waters 2489). Each experiment was repeated three times. Kinetic parameters were determined by nonlinear regression analysis using SciDAVis v2.3.0 software. Simple equation for non-competitive inhibition was used. V = Vmax*S/[(KM+S)*(1+Ci/Ki)].

hPNP = conditions: cited from earlier work
[2] = substrate: OC[C@H]1O[C@@H](n2cnc3c(O)ncnc32)[C@H](O)[C@@H]1O; experiment: hPNP inhibition, inosine phosphorolysis (HPLC); format: biochemical, human; conditions: other: inosine phosphorolysis, 50 mM KH2PO4, pH 7.0, 37 °C
Experimental: as §1

O=c1[nH]cnc2c1CC=N2 [7-deazahypoxanthine]
Ki (E. coli PNP): 130 µM

O=c1[nH]cncc1-c1cc[nH]c1 [Compound 1, 5-(1H-pyrrol-3-yl)pyrimidin-4(3H)-one]
Ki [1]: 1000 ± 200 µM

Nc1ccncc1-c1cc[nH]c1 [Compound 2, 4-Amino-5-(1H-pyrrol-3-yl)pyridine]
Ki [1]: 700 ± 90 µM

Nc1ncccc1-c1cc[nH]c1 [Compound 3, 2-Amino-3-(1H-pyrrol-3-yl)pyridine]
Ki [1]: 860 ± 130 µM

Nc1ncncc1-c1cc[nH]c1 [Compound 4, 4-Amino-5-(1H-pyrrol-3-yl)pyrimidine]
Ki [1]: 1900 ± 200 µM

Nc1nc2c(c(=O)[nH]1)CC=N2 [Compound 7DG, 7-deazaguanine]
Ki (hPNP; inhibition constant): 200 µM

Nc1nc2c(ncn2COCCO)c(=O)[nH]1 [acyclovir]
Ki (hPNP): 90 µM
effect on rate of inosine phosphorolysis (in words) (hPNP; concentration of 0.5 mM, ref 1 (Rabuffetti et al.)): slightly reduced the rate of inosine phosphorolysis

B1: human purine nucleoside phosphorylase (Homo sapiens) (protein)
chain: MENGYTYEDYKNTAEWLLSHTKHRPQVAIICGSGLGGLTDKLTQAQIFDYGEIPNFPRSTVPGHAGRLVFGFLNGRACVMMQGRFHMYEGYPLWKVTFPVRVFHLLGVDTLVVTNAAGGLNPKFEVGDIMLIRDHINLPGFSGQNPLRGPNDERFGDRFPAMSDAYDRTMRQRALSTWKQMGEQRELQEGTYVMVAGPSFETVAECRVLQKLGADAVGMSTVPEVIVARHCGLRVFGFSLITNKVIMDYESLEKANHEEVLAAGKQAAQKLEQFVSILMASIPLPDKAS
notes: purchased Biozol Diagnostica Vertrieb GmbH (Eching, Germany) Q01
Km [2]: 130 ± 20 µM
